Experimental data from patent US20220062240A1, “METHODS OF TREATING CANCER USING A CLK INHIBITOR” (BioSplice Therapeutics, Inc., priority 2018, published 2022).
Where two headings read alike, the source gives them in different places.

How the values were obtained:
Assay type in all cases: cell-based
[1] = test system: haematopoietic & lymphoid tumors (13 cell lines); experiment: CellTiter-Glo Viability Assay, haematopoietic & lymphoid tumors; conditions: Homo sapiens, inhibition of cancer cell proliferation
Procedure: (§1) Fifty-one human cancer cell lines (breast cancer (8 cell lines), colorectal cancer (6 cell lines), haematopoietic & lymphoid tumors (13 cell lines), liver cancer (3 cell lines), lung cancer (4 cell lines), ovarian cancer (4 cell lines), pancreatic cancer (8 cell lines), and prostate cancer (5 cell lines)) were tested to determine the effects of representative compounds of Formulas (I)-(XII) on cellular proliferation, as evaluated using the CellTiter-Glo® Viability Assay.
(§2) For the Cell Viability Assays, cells were plated at 300-3,000 cells/well in 384-well plates in their respective media containing 1% Penicillin-Streptomycin and incubated for four days at 37° C. and 5% CO2. Twenty-eight replicates of DMSO-treated cells served as controls and cells treated with compound were performed in duplicate.
(§3) After incubation, 10 μL of CellTiter-Glo® (Promega) was added to each well allowed to incubate for approximately 12 minutes. This reagent results in cell lysis and generation of a luminescent signal proportional to the amount of ATP present. The amount of ATP is directly proportional to the number of metabolically active, viable cells present in culture. The CellTiter-Glo® Assay generates a luminescent signal, produced by the luciferase reaction (Promega.com).
(§4) After incubation, the luminescence signal was read using an EnVision™ Multilabel Plate Reader (Perkin Elmer). Dose-response curves were generated and EC50 concentration values were calculated using Dotmatics' Studies Software (Bishops Stortford, UK).

[2] = test system: all 50 cell lines; experiment: CellTiter-Glo Viability Assay, average across all cell lines; conditions: Homo sapiens; across all 50 cell lines; read-out: average EC50 for inhibition of cancer cell proliferation
Procedure: as §1, §2, §3, §4

[3] = test system: pancreatic cancer (8 cell lines); experiment: CellTiter-Glo Viability Assay, pancreatic cancer; conditions: Homo sapiens, inhibition of cancer cell proliferation
Procedure: as §1, §2, §3, §4

[4] = test system: ovarian cancer (4 cell lines); experiment: CellTiter-Glo Viability Assay, ovarian cancer; conditions: Homo sapiens, inhibition of cancer cell proliferation
Procedure: as §1, §2, §3, §4

[5] = test system: liver cancer (3 cell lines); experiment: CellTiter-Glo Viability Assay, liver cancer; conditions: Homo sapiens, inhibition of cancer cell proliferation
Procedure: as §1, §2, §3, §4

[6] = test system: prostate cancer (5 cell lines); experiment: CellTiter-Glo Viability Assay, prostate cancer; conditions: Homo sapiens
Procedure: as §1, §2, §3, §4

[7] = test system: colorectal cancer (6 cell lines); experiment: CellTiter-Glo Viability Assay, colorectal cancer; conditions: Homo sapiens, inhibition of cancer cell proliferation
Procedure: as §1, §2, §3, §4

[8] = test system: lung cancer (4 cell lines); experiment: CellTiter-Glo Viability Assay, lung cancer; conditions: Homo sapiens, inhibition of cancer cell proliferation
Procedure: as §1, §2, §3, §4

[9] = test system: MDA-MB-231-Luc; experiment: CellTiter-Glo Viability Assay, breast cancer; conditions: Homo sapiens, 96 h; MDA-MB-231-Luc, breast cancer, four days; read-out: EC50
Procedure: as §1, §2, §3, §4

[10] = test system: DU4475; experiment: CellTiter-Glo Viability Assay, breast cancer; conditions: Homo sapiens, DU-4475, 96 h; DU4475, breast cancer, four days; read-out: EC50
Procedure: as §1, §2, §3, §4

[11] = test system: T47D; experiment: CellTiter-Glo Viability Assay, breast cancer; conditions: Homo sapiens, 96 h, breast cancer, four days, read-out: EC50
Procedure: as §1, §2, §3, §4

[12] = test system: MCF7; experiment: CellTiter-Glo Viability Assay, breast cancer; conditions: Homo sapiens, 96 h; MCF7, breast cancer, four days; read-out: EC50
Procedure: as §1, §2, §3, §4

[13] = test system: HCC1599; experiment: CellTiter-Glo Viability Assay, breast cancer; conditions: Homo sapiens, 96 h; HCC1599, breast cancer, four days; read-out: EC50
Procedure: as §1, §2, §3, §4

[14] = test system: BT-549; experiment: CellTiter-Glo Viability Assay, breast cancer; conditions: Homo sapiens, 96 h; BT-549, breast cancer, four days; read-out: EC50
Procedure: as §1, §2, §3, §4

[15] = test system: ZR-75-1; experiment: CellTiter-Glo Viability Assay, breast cancer; conditions: Homo sapiens, 96 h; ZR-75-1, breast cancer, four days; read-out: EC50
Procedure: as §1, §2, §3, §4

[16] = test system: CAMA1; experiment: CellTiter-Glo Viability Assay, breast cancer; conditions: Homo sapiens, CAMA-1, 96 h; CAMA1, breast cancer, four days; read-out: EC50
Procedure: as §1, §2, §3, §4

EC50 ([1]; DND41, DND-41 cell line, read-out: Haematopoietic & Lymphoid tumors, EC50 (μM) DND-41): 0.432 µM | EC50 ([1]; MV4-11, MV-4-11 cell line, read-out: Haematopoietic & Lymphoid tumors, EC50 (μM) MV-4-11): 0.039 µM | EC50 ([1]; Rec1, REC-1 cell line, read-out: Haematopoietic & Lymphoid tumors, EC50 (μM) REC-1): 2.78 µM | EC50 ([1]; SU-DHL-4, SUDHL4 cell line, read-out: Haematopoietic & Lymphoid tumors, EC50 (μM) SUDHL4): 0.398 µM | EC50 ([1]; HL-60 cell line, read-out: Haematopoietic & Lymphoid tumors, EC50 (μM) HL-60): 1.42 µM | EC50 ([1]; JM1 cell line, read-out: Haematopoietic & Lymphoid tumors, EC50 (μM) JM1): 0.176 µM | EC50 ([1]; JURKAT, Clone E6-1 cell line, read-out: Haematopoietic & Lymphoid tumors, EC50 (μM) JURKAT, Clone E6-1): 3.17 µM | EC50 ([1]; JeKo-1 cell line, read-out: Haematopoietic & Lymphoid tumors, EC50 (μM) JeKo-1): 0.182 µM | EC50 ([1]; KASUMI-1 cell line, read-out: Haematopoietic & Lymphoid tumors, EC50 (μM) KASUMI-1): 0.801 µM | EC50 ([1]; Loucy cell line, read-out: Haematopoietic & Lymphoid tumors, EC50 (μM) Loucy): 0.466 µM | EC50 ([1]; MOLT-4 cell line, read-out: Haematopoietic & Lymphoid tumors, EC50 (μM) MOLT-4): 2.96 µM | EC50 ([1]; TF-1 cell line, read-out: Haematopoietic & Lymphoid tumors, EC50 (μM) TF-1): 6.09 µM | EC50 ([1]; TOLEDO cell line, read-out: Haematopoietic & Lymphoid tumors, EC50 (μM) TOLEDO): 0.17 µM | EC50 ([3]; BXPC-3, BxPC3 cell line, read-out: Pancreatic cancer, EC50 BxPC3): 6080 nM | EC50 ([3]; CAPAN-1, Capan1 cell line, read-out: Pancreatic cancer, EC50 Capan1): 2370 nM | EC50 ([3]; Capan-2, Capan2 cell line, read-out: Pancreatic cancer, EC50 Capan2): 4980 nM | EC50 ([3]; MIA PaCa-2 cell line, read-out: Pancreatic cancer, EC50 MIA PaCa-2): 414 nM | EC50 ([3]; PANC 05.04 cell line, read-out: Pancreatic cancer, EC50 PANC 05.04): 5400 nM | EC50 ([3]; PANC-1 cell line, read-out: Pancreatic cancer, EC50 PANC-1): > 10000 nM | EC50 ([3]; UPAFII cell line, read-out: Pancreatic cancer, EC50 UPAFII): 1970 nM | EC50 ([4]; PA-1, PA1 cell line, read-out: Ovarian cancer, EC50 (μM) PA1): 0.795 µM | EC50 ([4]; TOV112D, TOV-112D cell line, read-out: Ovarian cancer, EC50 (μM) TOV-112D): 0.713 µM | EC50 ([4]; OV-90 cell line, read-out: Ovarian cancer, EC50 (μM) OV-90): 5.69 µM | EC50 ([4]; OVCAR-3 cell line, read-out: Ovarian cancer, EC50 (μM) OVCAR-3): 0.302 µM | EC50 ([5]; SNU-398, SNU398 cell line, read-out: Liver cancer, EC50 SNU398): 174 nM | EC50 ([5]; HEPG2 cell line, read-out: Liver cancer, EC50 HEPG2): 3590 nM | EC50 ([5]; PLC/PRF/5 cell line, read-out: Liver cancer, EC50 PLC/PRF/5): > 10000 nM | EC50 ([6]; DU-145, read-out: Prostate cancer EC50 Du-145): 2570 nM | EC50 ([6]; PC-3, PC3 cell line, inhibition of cancer cell proliferation, read-out: Prostate cancer EC50 PC3): 1180 nM | EC50 ([6]; 22Rv1 cell line, inhibition of cancer cell proliferation, read-out: Prostate cancer EC50 22Rv1): 968 nM | EC50 ([6]; LNCap clone FGC cell line, inhibition of cancer cell proliferation, read-out: Prostate cancer EC50 LNCap clone FGC): 7780 nM | EC50 ([6]; VCaP (Sigma) cell line, inhibition of cancer cell proliferation, read-out: Prostate cancer EC50 VCaP (Sigma)): 4540 nM | EC50 ([7]; HCT-116, HCT116 cell line, read-out: Colorectal cancer, EC50 (μM) HCT116): 0.86 µM | EC50 ([7]; HT-29, HT29 cell line, read-out: Colorectal cancer, EC50 (μM) HT29): 8.89 µM | EC50 ([7]; SW-620, SW620 cell line, read-out: Colorectal cancer, EC50 (μM) SW620): 0.473 µM | EC50 ([7]; DLD-1 cell line, read-out: Colorectal cancer, EC50 (μM) DLD-1): 2.35 µM | EC50 ([7]; SW48 cell line, read-out: Colorectal cancer, EC50 (μM) SW48): 0.469 µM | EC50 ([7]; SW480 cell line, read-out: Colorectal cancer, EC50 (μM) SW480): 0.491 µM | EC50 ([8]; A-427, A427 cell line, read-out: Lung cancer, EC50 (μM) A427): 0.591 µM | EC50 ([8]; HCC78, HCC-78 cell line, read-out: Lung cancer, EC50 (μM) HCC-78): 4.68 µM | EC50 ([8]; NCI-H460 cell line, read-out: Lung cancer, EC50 (μM) NCI-H460): > 10 µM | EC50 ([8]; NCI-H522 cell line, read-out: Lung cancer, EC50 (μM) NCI-H522): 0.417 µM | EC50 [9]: 2090 nM | EC50 [10]: 4010 nM | EC50 [11]: 2360 nM | EC50 [12]: > 10000 nM | EC50 [13]: 1170 nM | EC50 [14]: 1170 nM | EC50 [15]: 1680 nM | EC50 [16]: 2740 nM
SMILES: CN(C)Cc1cncc(-c2cnc3[nH]nc(-c4nc5c(-c6cc(F)cc(N7CCOCC7)c6)cncc5[nH]4)c3c2)c1 [Compound 46]
EC50 [2]: 2860 nM
